The results in this text go back to ChEMBL document CHEMBL1150755, “2,4,5-trimethoxystyrene, a bioactive component of the bark of Duguetia panamensis” (J Nat Prod, 1988).

A short description of data set [1]: Cytotoxicity against human 9KB cells. To be noted: read-out: ED50 (the source's name). It is filed as functional.
The subject of a further data set is Artemia. As to the kind of experiment: Toxicity in brine shrimp. It is filed as organism-based. To be noted: in vivo.
Data set [2] is described as follows: Cytotoxicity against mouse 9PS cells. To be noted: read-out: ED50 (the source's name). In kind it is functional.

Molecules are shown by their SMILES. Converted amounts (≈) assume the structure as drawn.

As usually defined, the LC50 is the concentration that kills 50% of the test population. A high value points to a less lethal substance. As for `C=Cc1cc(OC)c(OC)cc1OC`, the figures for the EC50 in data set [1] and in data set [2] were 42 µg/mL (≈ 216 µM) and 27 µg/mL (≈ 139 µM), respectively. The compound also yielded an LC50 in the data set with Artemia of 8 ppm.
